Test results as given in patent publication US20230011571A1, “SMALL MOLECULE FURIN INHIBITORS FOR TREATING INFECTIOUS DISEASES” (BP Asset V, Inc., priority 2019, published 2023).

Legend:
Format in all cases: cell-based
[1] = system: dengue virus (DENV); assay: microbe, parasite or virus in culture; conditions: Dengue virus, Vero, 120 h, read-out: Percent viral inhibition DENY
[2] = system: Chikungunya virus (CHIKV); assay: microbe, parasite or virus in culture; conditions: Chikungunya virus, Vero, 48 h, read-out: Percent viral inhibition CHKV
[3] = system: Marburg virus (MARV); assay: organism not typed; conditions: Vero, 72 h, read-out: Percent viral inhibition MARV

Molecule `CC(CC1CCN(Cc2cc(Oc3cnc(N4CCN(C[C@@H](C)O)CC4)nc3)nc(-c3cc(Cl)cc(Cl)c3)c2)CC1)C(=O)O` (stereo partly drawn) [Example 301, 3-(1-((2-(3,5-dichlorophenyl)-6-((2-(4-((R)-2-hydroxypropyl)piperazin-1-yl)pyrimidin-5-yl)oxy)pyridin-4-yl)methyl)piperidin-4-yl)-2-methylpropanoic acid] has an inhibition at 1 µM [1] of 56.1%, an inhibition at 1 µM [2] of 28.8% and an inhibition at 1 µM [3] of 68.4%.

With `CC(=O)NCC1CCN(Cc2cc(Oc3cnc(N4CCN(C[C@@H](C)O)CC4)nc3)nc(-c3cc(Cl)cc(Cl)c3)c2)CC1` [Example 302, (R)-N-((1-((2-(3,5-dichlorophenyl)-6-((2-(4-(2-hydroxypropyl)piperazin-1-yl)pyrimidin-5-yl)oxy)pyridin-4-yl)methyl)piperidin-4-yl)methyl)acetamide] the inhibition at 1 µM [1] was 26.6%, the inhibition at 1 µM [2] was 39% and the inhibition at 1 µM [3] was 56.9%.

`CC(=O)NCC1CCN(Cc2cc(Oc3cnc(N4CCN(CC(C)(C)O)CC4)nc3)nc(-c3cc(Cl)cc(Cl)c3)c2)CC1` [Example 303, N-((1-((2-(3,5-dichlorophenyl)-6-((2-(4-(2-hydroxy-2-methylpropyl)piperazin-1-yl)pyrimidin-5-yl)oxy)pyridin-4-yl)methyl)piperidin-4-yl)methyl)acetamide] was tested, and the inhibition at 1 µM [1] was 34.4%, the inhibition at 1 µM [2] was 33.4% and the inhibition at 1 µM [3] was 49.6%.

With `CC(=O)NCC1CCN(Cc2cc(Oc3cnc(N4CCN(CC(O)CF)CC4)nc3)nc(-c3cc(Cl)cc(Cl)c3)c2)CC1` (stereo not drawn) [Example 304, N-((1-((2-(3,5-dichlorophenyl)-6-((2-(4-(3-fluoro-2-hydroxypropyl)piperazin-1-yl)pyrimidin-5-yl)oxy)pyridin-4-yl)methyl)piperidin-4-yl)methyl)acetamide] the inhibition at 1 µM [1] was 41.8%, the inhibition at 1 µM [2] was 0% and the inhibition at 1 µM [3] was 12.4%.

`O=C(O)CC1CCN(Cc2cc(Oc3cnc(N4CCN(CCO)CC4)nc3)nc(-c3cc(Cl)cc(Cl)c3)c2)CC1` [Example 306, 2-(1-((2-(3,5-dichlorophenyl)-6-((2-(4-(2-hydroxyethyl)piperazin-1-yl)pyrimidin-5-yl)oxy)pyridin-4-yl)methyl)piperidin-4-yl)acetic acid] was tested, and the inhibition at 1 µM [1] was 7.27%, the inhibition at 1 µM [2] was 13.6% and the inhibition at 1 µM [3] was 51.1%.

`CNC(=O)OCC1CCN(Cc2cc(Oc3cnc(N4CCN(C[C@@H](C)O)CC4)nc3)nc(-c3cc(Cl)cc(Cl)c3)c2)CC1` [Example 308, (R)-(1-((2-(3,5-dichlorophenyl)-6-((2-(4-(2-hydroxypropyl)piperazin-1-yl)pyrimidin-5-yl)oxy)pyridin-4-yl)methyl)piperidin-4-yl)methylmethylcarbamate] gave an inhibition at 1 µM [1] of 0%, an inhibition at 1 µM [2] of 0% and an inhibition at 1 µM [3] of 23.7%.

`CNC(=O)NCC1CCN(Cc2cc(Oc3cnc(N4CCN(C[C@@H](C)O)CC4)nc3)nc(-c3cc(Cl)cc(Cl)c3)c2)CC1` [Example 310, (R)-1-((1-((2-(3,5-dichlorophenyl)-6-((2-(4-(2-hydroxypropyl)piperazin-1-yl)pyrimidin-5-yl)oxy)pyridin-4-yl)methyl)piperidin-4-yl)methyl)-3-methylurea] was tested, and the inhibition at 1 µM [1] was 19.3%, the inhibition at 1 µM [2] was 2.85% and the inhibition at 1 µM [3] was 18%.

With `COC(=O)NCC1CCN(Cc2cc(Oc3cnc(N4CCN(CCO)CC4)nc3)nc(-c3cc(Cl)cc(Cl)c3)c2)CC1` [Example 311, methyl((1-((2-(3,5-dichlorophenyl)-6-((2-(4-(2-hydroxyethyl)piperazin-1-yl)pyrimidin-5-yl)oxy)pyridin-4-yl)methyl)piperidin-4-yl)methyl)carbamate] the inhibition at 1 µM [1] was 0%, the inhibition at 1 µM [2] was 8.41% and the inhibition at 1 µM [3] was 17.5%.

Work on `O=C(O)CCC1CCN(Cc2cc(Oc3ccc(N4CCN(CCO)CC4)nc3)nc(-c3cc(Cl)cc(Cl)c3)c2)CC1` [Example 314, 3-(1-((2-(3,5-dichlorophenyl)-6-((6-(4-(2-hydroxyethyl)piperazin-1-yl)pyridin-3-yl)oxy)pyridin-4-yl)methyl)piperidin-4-yl)propanoic acid] yielded an inhibition at 1 µM [1] of 7.86%, an inhibition at 1 µM [2] of 32% and an inhibition at 1 µM [3] of 52.1%.

Work on `CC(=O)NCC1CCN(Cc2cc(Oc3cnc(N4CCN(CC(O)C(=O)O)CC4)nc3)nc(-c3cc(Cl)cc(Cl)c3)c2)CC1` (stereo not drawn) [Example 316, 3-(4-(5-((4-((4-(acetamidomethyl)piperidin-1-yl)methyl)-6-(3,5-dichlorophenyl)pyridin-2-yl)oxy)pyrimidin-2-yl)piperazin-1-yl)-2-hydroxypropanoic acid] yielded an inhibition at 1 µM [1] of 55.9%, an inhibition at 1 µM [2] of 30.6% and an inhibition at 1 µM [3] of 54.4%.

With `C[C@@H](O)CN1CCN(c2ncc(Oc3cc(CN4CCC(OCC(=O)O)CC4)cc(-c4cc(Cl)cc(Cl)c4)n3)cn2)CC1` [Example 317, (R)-2-((1-((2-(3,5-dichlorophenyl)-6-((2-(4-(2-hydroxypropyl)piperazin-1-yl)pyrimidin-5-yl)oxy)pyridin-4-yl)methyl)piperidin-4-yl)oxy)acetic acid] the inhibition at 1 µM [1] was 20.2%, the inhibition at 1 µM [2] was 14.8% and the inhibition at 1 µM [3] was 53.6%.

Molecule `CN1CCN(c2ncc(Oc3cc(CN4CCC(CB(O)O)CC4)cc(-c4cc(Cl)cc(Cl)c4)n3)cn2)CC1` [Example 318, ((1-((2-(3,5-dichlorophenyl)-6-((2-(4-methylpiperazin-1-yl)pyrimidin-5-yl)oxy)pyridin-4-yl)methyl)piperidin-4-yl)methyl)boronic acid] has an inhibition at 1 µM [1] of 44.6%, an inhibition at 1 µM [2] of 15.3% and an inhibition at 1 µM [3] of 31.6%.

Work on `CN1CCN(c2ncc(Oc3cc(CN4CCC(CP(C)(C)=O)CC4)cc(-c4cc(Cl)cc(Cl)c4)n3)cn2)CC1` [Example 320, ((1-((2-(3,5-dichlorophenyl)-6-((2-(4-methylpiperazin-1-yl)pyrimidin-5-yl)oxy)pyridin-4-yl)methyl)piperidin-4-yl)methyl)dimethylphosphineoxide] yielded an inhibition at 1 µM [1] of 15.3%, an inhibition at 1 µM [2] of 17.5% and an inhibition at 1 µM [3] of 52.5%.

`CN1CCN(c2ncc(Oc3cc(CN4CC[C@@H]5[C@H](CC4)[C@H]5C(=O)O)cc(-c4cc(Cl)cc(Cl)c4)n3)cn2)CC1` [Example 321, (1R,7S,8r)-4-((2-(3,5-dichlorophenyl)-6-((2-(4-methylpiperazin-1-yl)pyrimidin-5-yl)oxy)pyridin-4-yl)methyl)-4-azabicyclo[5.1.0]octane-8-carboxylic acid] gave an inhibition at 1 µM [1] of 27.3%, an inhibition at 1 µM [2] of 23.8% and an inhibition at 1 µM [3] of 43.4%.

`CN1CCN(c2ncc(Oc3cc(CN4CCC(CCB(O)O)CC4)cc(-c4cc(Cl)cc(Cl)c4)n3)cn2)CC1` [Example 323, (2-(1-((2-(3,5-dichlorophenyl)-6-((2-(4-methylpiperazin-1-yl)pyrimidin-5-yl)oxy)pyridin-4-yl)methyl)piperidin-4-yl)ethyl)boronic acid] was tested, and the inhibition at 1 µM [1] was 0%, the inhibition at 1 µM [2] was 5.87% and the inhibition at 1 µM [3] was 30.7%.

`COC(=O)NC(=O)NCC1CCN(Cc2cc(Oc3cnc(N4CCN(C)CC4)nc3)nc(-c3cc(Cl)cc(Cl)c3)c2)CC1` [Example 325, N-1-((1-((2-(3,5-dichlorophenyl)-6-((2-(4-methylpiperazin-1-yl)pyrimidin-5-yl)oxy)pyridin-4-yl)methyl)piperidin-4-yl)methyl)-N′-methoxyl-carbonylurea] gave an inhibition at 1 µM [1] of 5.08%, an inhibition at 1 µM [2] of 0% and an inhibition at 1 µM [3] of 0%.

With `CN1CCN(c2ncc(Oc3cc(CN4CCC(CNC(=O)NS(C)(=O)=O)CC4)cc(-c4cc(Cl)cc(Cl)c4)n3)cn2)CC1` [Example 326, N-(((1-((2-(3,5-dichlorophenyl)-6-((2-(4-methylpiperazin-1-yl)pyrimidin-5-yl)oxy)pyridin-4-yl)methyl)piperidin-4-yl)methyl)carbamoyl)methane-sulfonamide] the inhibition at 1 µM [1] was 45.5%, the inhibition at 1 µM [2] was 22.7% and the inhibition at 1 µM [3] was 63.9%.

Work on `CC(=O)NC(=O)NCC1CCN(Cc2cc(Oc3cnc(N4CCN(C)CC4)nc3)nc(-c3cc(Cl)cc(Cl)c3)c2)CC1` [Example 327, N-(((1-((2-(3,5-dichlorophenyl)-6-((2-(4-methylpiperazin-1-yl)pyrimidin-5-yl)oxy)pyridin-4-yl)methyl)piperidin-4-yl)methyl)carbamoyl)acetamide] yielded an inhibition at 1 µM [1] of 0%, an inhibition at 1 µM [2] of 0% and an inhibition at 1 µM [3] of 63.8%.

In the case of `CN1CCN(c2ncc(Oc3cc(CN4CCC(NC(=O)NS(C)(=O)=O)CC4)cc(-c4cc(Cl)cc(Cl)c4)n3)cn2)CC1` [Example 328, N-((1-((2-(3,5-dichlorophenyl)-6-((2-(4-methylpiperazin-1-yl)pyrimidin-5-yl)oxy)pyridin-4-yl)methyl)piperidin-4-yl)carbamoyl)methanesulfonamide], the inhibition at 1 µM [1] was 55.8%, the inhibition at 1 µM [2] was 37.5% and the inhibition at 1 µM [3] was 49.5%.

Work on `CN1CCN(c2ncc(Oc3cc(CN4CCC(NC(N)=O)CC4)cc(-c4cc(Cl)cc(Cl)c4)n3)cn2)CC1` [Example 329, 1-(1-((2-(3,5-dichlorophenyl)-6-((2-(4-methylpiperazin-1-yl)pyrimidin-5-yl)oxy)pyridin-4-yl)methyl)piperidin-4-yl)urea] yielded an inhibition at 1 µM [1] of 19.2%, an inhibition at 1 µM [2] of 22.2% and an inhibition at 1 µM [3] of 42.3%.

`CN1CCN(c2ncc(Oc3cc(CN4CCO[C@H](CO)CC4)cc(-c4cc(Cl)cc(Cl)c4)n3)cn2)CC1` [Example 330, (S)-(4-((2-(3,5-dichlorophenyl)-6-((2-(4-methylpiperazin-1-yl)pyrimidin-5-yl)oxy)pyridin-4-yl)methyl)-1,4-oxazepan-7-yl)methanol] gave an inhibition at 1 µM [1] of 26.4%, an inhibition at 1 µM [2] of 24.6% and an inhibition at 1 µM [3] of 58.7%.

For `CN1CCN(c2ncc(Oc3cc(CN4CCC(P(C)(C)=O)CC4)cc(-c4cc(Cl)cc(Cl)c4)n3)cn2)CC1` [Example 331, (1-((2-(3,5-dichlorophenyl)-6-((2-(4-methylpiperazin-1-yl)pyrimidin-5-yl)oxy)pyridin-4-yl)methyl)piperidin-4-yl)dimethylphosphineoxide], the inhibition at 1 µM [1] was 56.5%, the inhibition at 1 µM [2] was 22.6% and the inhibition at 1 µM [3] was 69.3%.
